From patent US10159678B2, “Methods to decrease susceptibility to asthmatic bronchoconstriction” (Cornell University, priority 2012, dated 2018)

Experiments:
A549 cells = assay: Sphinganine in cell lysates by LC-MS/MS after GlyH-101; assay type: cell-based; settings: GlyH-101 (50 μM), A549 lung epithelial cell line; FIG. 6B
Description: (§1) GlyH-101 (50 μM) was added to culture media of cystic fibrosis tracheal cells, non-cystic fibrosis tracheal cells or A549 cells (a lung epithelial cell line).
(§2) Sphinganine, an intermediate of de-novo sphingolipid synthesis, was quantified in cell lysates by LC-MS/MS.

[1] = test system: non-cystic fibrosis tracheal cells; assay: as above; assay type: cell-based; settings: GlyH-101 (50 μM) in culture media, non-CF airway epithelial cells; FIG. 6A
Description: as §1, §2

CFTR [2] = molecular target: T1, CFTR (Mus musculus, UniProt P26361); assay: Airway resistance to methacholine after intranasal GlyH-101 in Sptlc2+/+ and Sptlc2+/- mice; assay type: in vivo; settings: GlyH-101 (5 μg) intranasally, after 3 h
T1 construct: administered directly to the respiratory tract; from tissue; host or cells: live Sptlc2+/+ and Sptlc2+/- mice (airways)
T1 sequence (P26361 whole entry): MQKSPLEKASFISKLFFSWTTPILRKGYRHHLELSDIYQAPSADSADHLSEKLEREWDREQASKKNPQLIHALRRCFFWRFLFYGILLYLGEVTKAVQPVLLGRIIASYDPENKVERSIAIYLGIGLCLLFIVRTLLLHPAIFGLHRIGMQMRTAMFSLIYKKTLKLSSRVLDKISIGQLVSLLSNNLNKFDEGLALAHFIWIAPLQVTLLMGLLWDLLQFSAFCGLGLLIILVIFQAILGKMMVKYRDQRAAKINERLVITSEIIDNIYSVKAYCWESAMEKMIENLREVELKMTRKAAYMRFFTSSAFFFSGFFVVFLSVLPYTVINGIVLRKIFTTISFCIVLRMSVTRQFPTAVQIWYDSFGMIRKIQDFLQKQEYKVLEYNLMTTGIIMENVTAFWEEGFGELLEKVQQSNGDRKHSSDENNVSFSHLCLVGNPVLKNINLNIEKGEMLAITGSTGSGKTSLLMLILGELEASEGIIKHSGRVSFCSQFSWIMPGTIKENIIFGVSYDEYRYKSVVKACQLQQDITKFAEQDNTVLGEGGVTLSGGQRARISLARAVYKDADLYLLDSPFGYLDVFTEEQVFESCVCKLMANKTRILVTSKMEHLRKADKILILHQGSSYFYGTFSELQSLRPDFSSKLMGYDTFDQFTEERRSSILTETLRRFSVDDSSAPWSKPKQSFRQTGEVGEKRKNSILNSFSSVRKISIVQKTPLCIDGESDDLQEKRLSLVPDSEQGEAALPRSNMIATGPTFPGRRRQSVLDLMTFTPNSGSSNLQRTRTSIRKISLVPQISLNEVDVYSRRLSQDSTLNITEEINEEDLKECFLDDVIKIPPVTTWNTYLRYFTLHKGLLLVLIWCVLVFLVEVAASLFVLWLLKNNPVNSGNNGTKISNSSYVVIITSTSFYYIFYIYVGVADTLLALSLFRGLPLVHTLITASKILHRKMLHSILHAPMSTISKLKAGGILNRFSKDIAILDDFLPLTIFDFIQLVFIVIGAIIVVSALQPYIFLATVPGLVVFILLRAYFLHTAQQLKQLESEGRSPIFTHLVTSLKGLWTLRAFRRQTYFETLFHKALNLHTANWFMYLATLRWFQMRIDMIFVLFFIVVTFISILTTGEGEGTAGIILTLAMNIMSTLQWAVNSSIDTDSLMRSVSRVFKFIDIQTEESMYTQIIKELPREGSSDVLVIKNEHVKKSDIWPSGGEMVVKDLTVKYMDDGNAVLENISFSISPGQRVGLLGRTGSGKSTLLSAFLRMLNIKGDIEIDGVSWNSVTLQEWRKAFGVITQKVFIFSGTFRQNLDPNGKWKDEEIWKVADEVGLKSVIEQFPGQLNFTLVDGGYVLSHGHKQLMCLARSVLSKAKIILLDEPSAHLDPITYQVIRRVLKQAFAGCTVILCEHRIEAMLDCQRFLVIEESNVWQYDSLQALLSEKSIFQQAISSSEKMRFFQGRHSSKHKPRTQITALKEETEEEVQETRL
Description: Mice were anaesthetized with pentobarbital (100 mg/kg; American Pharmaceutical Partners, Los Angeles, Calif.), tracheostomized and mechanically ventilated at a rate of 150 breaths/min, a tidal volume of 10 ml/kg and positive end-expiratory pressure of 2-3 cm H2O using a computer-controlled animal ventilator (Sireq, Montreal, Canada). Three perturbations were used to assess baseline respiratory mechanics and the effects were analyzed using the Flexivent software (Scireq): • (1) Static compliance was determined using the Salazar-Knowles equation (Colebatch et al., J Appl Physiol 46:387-393 (1971) to the plateau pressure measurements obtained between total lung capacity and functional residual capacity; • (2) Single-frequency forced oscillations were applied to determine tissue resistance (R), elastance (E) and dynamic compliance (C) using a single compartment model; • (3) Broadband forced oscillations were applied to determine Newtonian (airway) resistance (Rn), tissue damping (G) and tissue elastance using a constant phase model. Rn and G were also assessed following increasing doses of methacholine (3.125, 12.5 and 50 mg/ml). […]

CFTR [3] = molecular target: T1, CFTR; assay: Myograph contractile response of bronchial rings from Sptlc2+/- or Sptlc2+/+ mice with GlyH-101 in bath; settings: 2 hr in bath, methacholine (10 mM), FIG. 6C
Description: In another experiment, bronchial rings were isolated from Sptlc2^+/− or Sptlc2^+/+ mice and mounted in a myograph. CFTR inhibitor GlyH-101 or the solvent DMSO (control) were added to the bath solution. After 2 hr contractile responses of the rings stimulated with methacholine (10 mM) were determined.

[4] = test system: cystic fibrosis tracheal cells; assay: Sphinganine in cell lysates by LC-MS/MS after GlyH-101; assay type: cell-based, human; settings: GlyH-101 (50 μM) in culture medium, cells from the trachea of cystic fibrosis patients; FIG. 6A
Description: as §1, §2

[5] = test system: Human bronchial epithelial cells; assay: Viability of human bronchial epithelial cells; assay type: cell-based; settings: myriocin (1 μM) or fenretinide (10 μM) for 3 hours
Description: (§3) Human bronchial epithelial cells were incubated with either myriocin (1 μM) or fenretinide (10 μM) for 3 hours. The amounts of sphingolipids were then quantified by mass spectrometry.
The viability of the cells was not affected by fenretinide or myriocin. Fenretinide can induce cell death at doses as low as 5 μM in cancer cells (Wang et al. Cancer Res 61:5102-5 (2001)), but toxicity is usually not seen in doses up to 12 μM in non-malignant cells (Li et al., Cancer Letters 284:175-81 (2009); O'Donnell et al., Leukemia 16:902-10 (2002)). Accordingly, low doses of fenretinide may effectively alleviate bronchial hyper reactivity.

non-malignant cells = non-malignant cells (Li et al. 2009; O'Donnell et al. 2002); cited from earlier work
cancer cells = cancer cells (Wang et al. 2001); cited from earlier work
[6] = test system: Human bronchial epithelial cells; assay: Sphingolipids by mass spectrometry in human bronchial epithelial cells; assay type: cell-based; settings: fenretinide (10 μM) for 3 hours; FIG. 7
Description: FIG. 7 illustrates that fenretinide increases metabolites of de-novo sphingolipid synthesis. Human bronchial epithelial cells were incubated with myriocin (1 μM) or fenretinide (10 μM) for 3 h in serum free medium supplemented with fatty acid-free bovine serum albumin (0.1%). Cell lysates were analyzed by mass spectrometry. The sums (mean+SEM) of all dihydroceramides are shown as a reflection of the activity of the de-novo sphingolipid synthesis pathway.
as §3

Row | SMILES | sphinganine level (A549 cells) | sphinganine level [1] | airway resistance after methacholine (CFTR [2]; Sptlc2+/- mice, FIG. 6E) | bronchial reactivity after methacholine (CFTR [2]; control Sptlc2+/+ mice, FIG. 6D) | contractile response of bronchial rings upon methacholine (CFTR [3]; rings from Spt-deficient mice) | contractile response of bronchial rings (CFTR [3]; rings from wild type mice (Sptlc+/+)) | sphinganine level [4] | viability of the cells [5] | doses at which toxicity is usually not seen (non-malignant cells) | doses that can induce cell death (cancer cells) [µM] | sum of all dihydroceramides [6]
1 | O=C(CNc1ccc2ccccc2c1)N/N=C/c1cc(Br)c(O)c(Br)c1O [GlyH-101, (Naphthalen-2-ylamino)-acetic acid (3,5-dibromo-2,4,-dihydroxybenzylidene)-hydrazide] | increases | increases | alleviated | no effect | decreased | increased contractile response | not altered |  |  |  | 
2 | CC1=C(/C=C/C(C)=C/C=C/C(C)=C/C(=O)Nc2ccc(O)cc2)C(C)(C)CCC1 [fenretinide, N-(4-hydroxyphenyl)retinamide] |  |  |  |  |  |  |  | not affected | up to 12 μM | ≥ 5 | increased
